Experimental data published in patent publication US8377884B2, “Variants of C-type natriuretic peptides” (Biomarin Pharmaceutical Inc., priority 2007, dated 2013).
Read-outs that look alike come from different tables or passages of the source. Bridge positions count the residues as written; N and C are the ends. Square brackets hold non-standard residues; d marks the D form. Ends that are not written are not given here. Peptide text beside a SMILES is read from it. PEO12 = monodispersed PEO, 0.6 kDa; Cit = NC(=O)NCCC[C@H](N)C(=O)O

Molecular target: T1, NPR-B (Mus musculus, UniProt Q6VVW5)
T1 construct: Murine NIH3T3 cells express endogenously the CNP signaling receptor, NPR-B; endogenous in cells; host or cells: NIH3T3 (murine fibroblasts)
T1 sequence (Q6VVW5 17-1047): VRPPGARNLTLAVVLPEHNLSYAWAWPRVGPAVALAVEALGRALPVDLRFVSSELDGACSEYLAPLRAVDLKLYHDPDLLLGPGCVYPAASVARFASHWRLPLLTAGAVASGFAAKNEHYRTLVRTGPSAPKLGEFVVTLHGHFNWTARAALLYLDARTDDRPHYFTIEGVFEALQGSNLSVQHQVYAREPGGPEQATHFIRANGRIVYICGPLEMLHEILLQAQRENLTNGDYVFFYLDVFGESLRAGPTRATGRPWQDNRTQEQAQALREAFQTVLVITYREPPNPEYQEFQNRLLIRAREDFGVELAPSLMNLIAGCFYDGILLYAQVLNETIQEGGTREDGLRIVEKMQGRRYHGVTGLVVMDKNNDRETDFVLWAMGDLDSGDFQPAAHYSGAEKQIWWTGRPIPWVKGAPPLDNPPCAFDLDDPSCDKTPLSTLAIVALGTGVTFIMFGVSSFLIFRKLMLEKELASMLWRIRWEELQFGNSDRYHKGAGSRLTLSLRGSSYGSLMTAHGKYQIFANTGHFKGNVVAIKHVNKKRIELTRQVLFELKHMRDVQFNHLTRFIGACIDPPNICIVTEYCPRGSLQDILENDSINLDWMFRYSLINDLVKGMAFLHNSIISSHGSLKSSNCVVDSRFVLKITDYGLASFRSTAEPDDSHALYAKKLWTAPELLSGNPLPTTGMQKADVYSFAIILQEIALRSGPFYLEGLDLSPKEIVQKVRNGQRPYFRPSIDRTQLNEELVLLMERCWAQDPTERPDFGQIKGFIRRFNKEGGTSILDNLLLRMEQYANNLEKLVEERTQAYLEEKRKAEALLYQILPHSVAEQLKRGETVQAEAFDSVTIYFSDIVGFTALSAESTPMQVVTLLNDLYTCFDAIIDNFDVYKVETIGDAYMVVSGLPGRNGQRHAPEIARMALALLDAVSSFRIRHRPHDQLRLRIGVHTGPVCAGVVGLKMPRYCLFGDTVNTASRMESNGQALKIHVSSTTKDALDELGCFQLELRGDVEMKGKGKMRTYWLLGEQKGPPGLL
Assay: Stimulation of cGMP production in NIH3T3 cells
Assay type: cell-based, Murine
Conditions: for cGMP response relative to 1 uM CNP22 (%) at 0.01 µM: read-out: cGMP Response rel. to 1 uM CNP22, 10 nM; for cGMP response relative to 1 uM CNP22 (%) at 1 µM: read-out: cGMP Response rel. to 1 uM CNP22, 1 uM

[1] = NIH3T3 cells, 10 nM natriuretic peptide, normalized to cell number and cGMP production with 1 uM wtCNP22
[2] = NIH3T3 cells, 1 uM natriuretic peptide, normalized to cell number and cGMP production with 1 uM wtCNP22

cGMP response relative to 1 uM CNP22 (%) at 0.01 µM [1] | cGMP response relative to 1 uM CNP22 (%) at 1 µM [2] | Compound | also measured
60% | 121% | CC[C@H](C)[C@@H]1NC(=O)[C@H](CCCNC(=N)N)NC(=O)[C@H](CC(=O)O)NC(=O)[C@H](CC(C)C)NC(=O)[C@H](CCCCN)NC(=O)[C@H](CC(C)C)NC(=O)CNC(=O)[C@H](Cc2ccccc2)NC(=O)[C@@H](NC(=O)CNC(=O)[C@H](CCCCN)NC(=O)[C@H](CO)NC(=O)[C@H](CC(C)C)NC(=O)CNC(=O)[C@H](CCCCN)NC(=O)[C@H](CCC(N)=O)NC(=O)[C@H](CC(N)=O)NC(=O)[C@H](C)NC(=O)CNC(=O)[C@H](CCCCN)NC(=O)[C@H](Cc2ccc(O)cc2)NC(=O)[C@H](CCCCN)NC(=O)[C@H](CCCNC(=N)N)NC(=O)[C@H](C)NC(=O)[C@H](CC(N)=O)NC(=O)[C@@H]2CCCN2C(=O)[C@H](Cc2c[nH]cn2)NC(=O)[C@H](CCC(=O)O)NC(=O)[C@H](CCC(N)=O)NC(=O)CN)CSSC[C@@H](C(=O)O)NC(=O)CNC(=O)[C@H](CC(C)C)NC(=O)CNC(=O)[C@H](CO)NC(=O)[C@H](CCSC)NC(=O)[C@H](CO)NC(=O)CNC1=O [CT] (H-GQEHPNARKYKGANQKGLSKGCFGLKLDRIGSMSGLGC-OH; disulfide 22-38 (inferred); N-terminus and C-terminus assumed) | –
3% | 25% | CC[C@H](C)[C@@H]1NC(=O)[C@H](CCCNC(=N)N)NC(=O)[C@H](CC(=O)O)NC(=O)[C@H](CC(C)C)NC(=O)[C@H](CCCCN)NC(=O)[C@H](CC(C)C)NC(=O)[C@H](C(C)C)NC(=O)[C@H](Cc2ccccc2)NC(=O)[C@@H](NC(=O)CNC(=O)[C@H](CCCNC(=N)N)NC(=O)[C@H](CO)NC(=O)[C@H](CC(C)C)NC(=O)CN)CSSC[C@@H](C(=O)O)NC(=O)CNC(=O)[C@H](CC(C)C)NC(=O)CNC(=O)[C@H](CO)NC(=O)[C@H](CCSC)NC(=O)[C@H](CO)NC(=O)CNC1=O [AA] (H-GLSRGCFVLKLDRIGSMSGLGC-OH; disulfide 6-22 (inferred); N-terminus and C-terminus assumed) | –
12% | 80% | CC[C@H](C)[C@@H]1NC(=O)[C@H](CCCNC(=N)N)NC(=O)[C@H](CC(=O)O)NC(=O)[C@H](CC(C)C)NC(=O)[C@H](CCCNC(=N)N)NC(=O)[C@H](CC(C)C)NC(=O)CNC(=O)[C@H](Cc2ccccc2)NC(=O)[C@@H](NC(=O)CNC(=O)[C@H](CCCNC(=N)N)NC(=O)[C@H](CO)NC(=O)[C@H](CC(C)C)NC(=O)CN)CSSC[C@@H](C(=O)O)NC(=O)CNC(=O)[C@H](CC(C)C)NC(=O)CNC(=O)[C@H](CO)NC(=O)[C@H](CCSC)NC(=O)[C@H](CO)NC(=O)CNC1=O [BH] (H-GLSRGCFGLRLDRIGSMSGLGC-OH; disulfide 6-22) | –
18% | 69% | CC[C@H](C)[C@@H]1NC(=O)[C@H](CCCNC(=N)N)NC(=O)[C@H](CC(=O)O)NC(=O)[C@H](CC(C)C)NC(=O)[C@H](CCCCN)NC(=O)[C@H](CC(C)C)NC(=O)CNC(=O)[C@H](Cc2ccccc2)NC(=O)[C@@H](N)CSSC[C@@H](C(=O)O)NC(=O)CNC(=O)[C@H](CC(C)C)NC(=O)CNC(=O)[C@H](CO)NC(=O)[C@H](CCSC)NC(=O)[C@H](CO)NC(=O)CNC1=O [AX] (H-CFGLKLDRIGSMSGLGC-OH; disulfide 1-17 (inferred); N-terminus and C-terminus assumed) | –
0.2% | 8% | CC[C@H](C)[C@@H]1NC(=O)[C@H](CCCNC(=N)N)NC(=O)[C@H](CC(=O)O)NC(=O)[C@H](CC(C)C)NC(=O)[C@H](CCCCN)NC(=O)[C@H](CC(C)C)NC(=O)CNC(=O)[C@H](Cc2ccccc2)NC(=O)[C@@H](NC(=O)CNC(=O)[C@H](CCCNC(=N)N)NC(=O)[C@H](CO)NC(=O)[C@H](CC(C)C)NC(=O)CN)CSSC[C@@H](C(=O)O)NC(=O)CNC(=O)[C@H](C(C)C)NC(=O)CNC(=O)[C@H](CO)NC(=O)[C@H](CCSC)NC(=O)[C@H](CO)NC(=O)CNC1=O [AJ] (H-GLSRGCFGLKLDRIGSMSGVGC-OH; disulfide 6-22 (inferred); N-terminus and C-terminus assumed) | –

Second part, the compound before the results:

Compound | cGMP response relative to 1 uM CNP22 (%) at 0.01 µM [1] | cGMP response relative to 1 uM CNP22 (%) at 1 µM [2] | also measured
CC[C@H](C)[C@@H]1NC(=O)[C@H](CCCNC(=N)N)NC(=O)[C@H](CC(=O)O)NC(=O)[C@H](CC(C)C)NC(=O)[C@H](CCCCN)NC(=O)[C@H](CC(C)C)NC(=O)CNC(=O)[C@H](Cc2ccccc2)NC(=O)[C@@H](NC(=O)CNC(=O)[C@H](CCCNC(=N)N)NC(=O)[C@H](CO)NC(=O)[C@H](CC(C)C)NC(=O)CN)CSSC[C@@H](C(=O)O)NC(=O)CNC(=O)[C@H](CC(C)C)NC(=O)CNC(=O)[C@H](CO)NC(=O)[C@H](CCSC)NC(=O)[C@H](CO)NC(=O)[C@H](CCCNC(N)=O)NC1=O [AF] (H-GLSRGCFGLKLDRI[Cit]SMSGLGC-OH; disulfide 6-22 (inferred); N-terminus and C-terminus assumed) | – | – | cGMP response relative to 1 uM CNP22 (%) at 0.01 µM (NIH3T3, […]): 1.4%; cGMP response relative to 1 uM CNP22 (%) at 1 µM (NIH3T3, […]): 2%
CC[C@H](C)[C@@H]1NC(=O)[C@H](CCCNC(=N)N)NC(=O)[C@H](CC(=O)O)NC(=O)[C@H](CC(C)C)NC(=O)[C@H](CCCCN)NC(=O)[C@H]([C@@H](C)O)NC(=O)CNC(=O)[C@H](Cc2ccccc2)NC(=O)[C@@H](NC(=O)CNC(=O)[C@H](CCCNC(=N)N)NC(=O)[C@H](CO)NC(=O)[C@H](CC(C)C)NC(=O)CN)CSSC[C@@H](C(=O)O)NC(=O)CNC(=O)[C@H](CC(C)C)NC(=O)CNC(=O)[C@H](CO)NC(=O)[C@H](CCSC)NC(=O)[C@H](CO)NC(=O)CNC1=O [AD] (H-GLSRGCFGTKLDRIGSMSGLGC-OH; disulfide 6-22) | 4% | 68% | –
CC[C@H](C)[C@@H]1NC(=O)[C@H](CCCNC(=N)N)NC(=O)[C@H](CC(=O)O)NC(=O)[C@H](CC(C)C)NC(=O)[C@H](CCCCN)NC(=O)[C@H](CC(C)C)NC(=O)CNC(=O)[C@H](Cc2ccccc2)NC(=O)[C@@H](NC(=O)CNC(=O)[C@H](CCCNC(=N)N)NC(=O)[C@H](CO)NC(=O)[C@H](CC(C)C)NC(=O)CN)CSSC[C@@H](C(=O)O)NC(=O)CNC(=O)[C@H](CC(C)C)NC(=O)CNC(=O)[C@H](CO)NC(=O)[C@H](CCSC)NC(=O)[C@H](CO)NC(=O)[C@H](CCCNC(=N)N)NC1=O [AE] (H-GLSRGCFGLKLDRIRSMSGLGC-OH; disulfide 6-22 (inferred); N-terminus and C-terminus assumed) | – | – | cGMP response relative to 1 uM CNP22 (%) at 0.01 µM (NIH3T3, […]): 0.3%; cGMP response relative to 1 uM CNP22 (%) at 1 µM (NIH3T3, […]): 0.3%
CC[C@H](C)[C@@H]1NC(=O)[C@H](CCCNC(=N)N)NC(=O)[C@H](CC(=O)O)NC(=O)[C@H](CC(C)C)NC(=O)[C@H](CCCCN)NC(=O)[C@H](CC(C)C)NC(=O)CNC(=O)[C@H](Cc2ccccc2)NC(=O)[C@@H](NC(=O)CNC(=O)[C@H](CCCNC(=N)N)NC(=O)[C@H](CO)NC(=O)[C@H](CC(C)C)NC(=O)CNC(=O)[C@H](CCC(N)=O)NC(=O)[C@H](CCC(N)=O)NC(=O)[C@H](CC(N)=O)NC(=O)[C@H](C)NC(=O)CNC(=O)[C@H](CO)NC(=O)[C@H](CCC(N)=O)NC(=O)[C@@H](NC(=O)CNC(=O)[C@H](CO)NC(=O)[C@H](CO)NC(=O)[C@H](Cc2c[nH]cn2)NC(=O)[C@@H](NC(=O)[C@H](CCC(N)=O)NC(=O)CN)[C@@H](C)O)[C@@H](C)O)CSSC[C@@H](C(=O)O)NC(=O)CNC(=O)[C@H](CC(C)C)NC(=O)CNC(=O)[C@H](CO)NC(=O)[C@H](CCSC)NC(=O)[C@H](CO)NC(=O)CNC1=O [CN] (H-GQTHSSGTQSGANQQGLSRGCFGLKLDRIGSMSGLGC-OH; disulfide 21-37) | 12% | 115% | –
PEO12-CNP22, K4R: CNP22, K4R conjugated at the N-terminus to PEO12 (PEO12-GLSRGCFGLKLDRIGSMSGLGC; disulfide 6-22 (inferred); UniProt P23582 105-126, looked up, variant K4R) | – | – | cGMP Response rel. to 1 uM CNP22, 10 nM [1]: 13; cGMP Response rel. to 1 uM CNP22, 1 uM [2]: 44
